Data reported in ChEMBL document CHEMBL5244273, “Tuberculosis: An Overview of the Immunogenic Response, Disease Progression, and Medicinal Chemistry Efforts in the Last Decade toward the Development of Potential Drugs for Extensively Drug-Resistant Tuberculosis Strains” (J Med Chem, 2021).
pEC50, pIC50: −log10 of the molar value. Values after ≈ are worked out from the molar mass of the structure shown.

What was measured:
[1] = system: Mycobacterium tuberculosis; assay: Antimycobacterial activity against Mycobacterium tuberculosis H37Rv assessed as inhibition of bacterial growth incubated for 5 days by alamar blue assay; assay type: functional; settings: 120 h, time 5 day
[2] = system: Mycobacterium tuberculosis; assay: Antimycobacterial activity against Mycobacterium tuberculosis H37Rv incubated for 2 weeks; assay type: functional; settings: 336 h
[3] = system: Mycobacterium tuberculosis; assay: Antimycobacterial activity against Mycobacterium tuberculosis H37Rv incubated for 3 weeks; assay type: functional; settings: 504 h
[4] = system: Mycobacterium tuberculosis; assay: Antimycobacterial activity against Mycobacterium tuberculosis H37Rv incubated for 4 weeks; assay type: functional; settings: 672 h
[5] = system: Mycobacterium tuberculosis; assay: Antimycobacterial activity against Mycobacterium tuberculosis H37Rv incubated for 5 weeks; assay type: functional; settings: 840 h
[6] = system: Mycobacterium tuberculosis; assay: Antitubercular activity against Mycobacterium tuberculosis H37Rv assessed as inhibition of bacterial growth by alamar blue assay; assay type: functional
[7] = system: Mycobacterium tuberculosis; assay: Antimycobacterial activity against Mycobacterium tuberculosis H37Rv; assay type: functional
[8] = system: Mycobacterium tuberculosis; assay: Antimycobacterial activity against Mycobacterium tuberculosis H37Rv ATCC 27294 by broth dilution method; assay type: functional
J774 = assay: Cytotoxicity against mouse J774 cells incubated for 24 hrs by MTT assay; assay type: toxicity, cell-based; settings: j774, 24 h
[9] = system: Mycobacterium tuberculosis; assay: Potentiation of ethionamide induced antibacterial activity against Mycobacterium tuberculosis H37Rv expressing GFP incubated for 5 days by fluorescence based analysis; assay type: functional, organism-based; settings: 120 h
[10] = system: Mycobacterium tuberculosis; assay: Antimycobacterial activity against Mycobacterium tuberculosis H37Rv infected in human THP-1 cells assessed as inhibition of bacterial growth; assay type: functional, organism-based

COc1ccc(NC(=O)c2c(NN3CCOCC3)nn3c(O)cc(C)nc23)cc1
MIC [1]: 25 µg/mL (≈ 62.7 µM)

COc1ccc(Nc2nn3c(O)cc(C)nc3c2C(=O)Nc2ccc(C)cc2C)cc1
MIC [1]: 50 µg/mL (≈ 120 µM)

Cc1cc(O)n2nc(N3CCCC3)c(C(=O)Nc3ccc(Cl)c(Cl)c3)c2n1
MIC [1]: 25 µg/mL (≈ 61.5 µM)

CC(C)(C)OC(=O)Nc1ccc(-c2cc3c(cc2F)c(=O)c(C(=O)O)cn3C(C)(C)C)cc1
MIC [2]: 4 µg/mL (≈ 8.8 µM)
MIC [3]: 4 µg/mL (≈ 8.8 µM)
MIC [4]: 4 µg/mL (≈ 8.8 µM)
MIC [5]: 4 µg/mL (≈ 8.8 µM)

CCN1CCN(c2nn3c(O)cc(C)nc3c2C(=O)Nc2cccc(Cl)c2Cl)CC1
MIC [1]: 50 µg/mL (≈ 111 µM)

COc1ccc(C(=O)NNC(=O)c2ccncc2)cc1OC
MIC [6]: 50 µg/mL (≈ 166 µM)

Cc1ccc(Nc2nn3c(O)cc(C)nc3c2C(=O)Nc2ccc(F)cc2)c(C)c1
MIC [1]: 50 µg/mL (≈ 123 µM)

COc1ccc(-c2cc3c(cc2F)c(=O)c(C(=O)O)cn3C2CC2)cn1
MIC [2]: 0.5 µg/mL (≈ 1.41 µM)
MIC [3]: 0.5 µg/mL (≈ 1.41 µM)
MIC [4]: 0.5 µg/mL (≈ 1.41 µM)
MIC [5]: 0.5 µg/mL (≈ 1.41 µM)

Cc1ccc(OCCc2cn(C[C@@]3(C)Cn4cc([N+](=O)[O-])nc4O3)nn2)cc1
MIC [7]: 0.25 µg/mL (≈ 0.65 µM)
MIC [8]: 0.25 µg/mL (≈ 0.65 µM)
Activity (J774): > 40 µg/mL

Cc1ccc(NC(=O)c2c(Nc3ccccc3)nn3c(O)cc(C)nc23)cc1
MIC [1]: 50 µg/mL (≈ 134 µM)

O=C(COc1ccccc1)NNC(=O)c1ccncc1
MIC [6]: 25 µg/mL (≈ 92.2 µM)

O=C(Cc1ccccc1F)NNC(=O)c1ccncc1
MIC [6]: 6.25 µg/mL (≈ 22.9 µM)

Cc1ccccc1C(=O)NNC(=O)c1ccncc1
MIC [6]: 25 µg/mL (≈ 97.9 µM)

Cc1ccc(Nc2nn3c(O)cc(C)nc3c2C(=O)Nc2ccccc2)cc1
MIC [1]: 100 µg/mL (≈ 268 µM)

O=C(Cc1cccc(Br)c1)NNC(=O)c1ccncc1
MIC [6]: 25 µg/mL (≈ 74.8 µM)

C=CC(=O)NNC(=O)c1ccncc1
MIC [6]: 50 µg/mL (≈ 262 µM)

COc1ccc(/C=C/C(=O)NNC(=O)c2ccncc2)cc1
MIC [6]: 12.5 µg/mL (≈ 42 µM)

Cc1cc(O)n2nc(Nc3ccc(F)cc3)c(C(=O)Nc3cccc(Cl)c3)c2n1
MIC [1]: 12.5 µg/mL (≈ 30.4 µM)

COc1ccc(NC(=O)c2c(Nc3ccc(OC)cc3)nn3c(O)cc(C)nc23)cc1
MIC [1]: 12.5 µg/mL (≈ 29.8 µM)

CC(C)(C)n1cc(C(=O)O)c(=O)c2cc(F)c(Sc3ccccc3)cc21
MIC [2]: 8 µg/mL (≈ 21.5 µM)
MIC [3]: 16 µg/mL (≈ 43.1 µM)
MIC [4]: 16 µg/mL (≈ 43.1 µM)
MIC [5]: 16 µg/mL (≈ 43.1 µM)

COc1ccc(NC(=O)c2c(Nc3cccc(Cl)c3)nn3c(O)cc(C)nc23)cc1
MIC [1]: 12.5 µg/mL (≈ 29.5 µM)

Cc1cc(O)n2nc(Nc3ccc(Cl)cc3)c(C(N)=O)c2n1
MIC [1]: 50 µg/mL (≈ 157 µM)

COc1ccc(-c2cc3c(cc2F)c(=O)c(C(=O)O)cn3C(C)(C)C)cn1
MIC [2]: 0.25 µg/mL (≈ 0.675 µM)
MIC [3]: 0.25 µg/mL (≈ 0.675 µM)
MIC [4]: 0.5 µg/mL (≈ 1.35 µM)
MIC [5]: 0.5 µg/mL (≈ 1.35 µM)

CC(C)(C)n1cc(C(=O)O)c(=O)c2cc(F)c(-c3ccccc3Cl)cc21
MIC [2]: 8 µg/mL (≈ 21.4 µM)
MIC [3]: 8 µg/mL (≈ 21.4 µM)
MIC [4]: 8 µg/mL (≈ 21.4 µM)
MIC [5]: 8 µg/mL (≈ 21.4 µM)

O=C(O)c1cn(C2CC2)c2cc(N3CCNCC3)c(F)cc2c1=O [CIPROFLOXACIN]
MIC [7]: 3.12 µg/mL (≈ 9.42 µM)
MIC [1]: 3.12 µg/mL (≈ 9.42 µM)
MIC [6]: 3.12 µg/mL (≈ 9.43 µM)
MIC [2]: 0.25 µg/mL (≈ 0.754 µM)
MIC [3]: 0.25 µg/mL (≈ 0.754 µM)
MIC [4]: 0.25 µg/mL (≈ 0.754 µM)
MIC [5]: 0.25 µg/mL (≈ 0.754 µM)

CC(C)(C)n1cc(C(=O)O)c(=O)c2cc(F)c(-c3ccc(O)cc3)cc21
MIC [2]: 0.25 µg/mL (≈ 0.704 µM)
MIC [3]: 0.25 µg/mL (≈ 0.704 µM)
MIC [4]: 0.25 µg/mL (≈ 0.704 µM)
MIC [5]: 0.25 µg/mL (≈ 0.704 µM)

COc1ccc(-c2cc3c(cc2F)c(=O)c(C(=O)O)cn3C(C)(C)C)cc1
MIC [2]: 0.5 µg/mL (≈ 1.35 µM)
MIC [3]: 1 µg/mL (≈ 2.71 µM)
MIC [4]: 1 µg/mL (≈ 2.71 µM)
MIC [5]: 2 µg/mL (≈ 5.41 µM)

Cc1cc(O)n2nc(Nc3cccc(C)c3C)c(C(=O)Nc3cccc(Cl)c3)c2n1
MIC [1]: 50 µg/mL (≈ 119 µM)

Cc1cccc(C(=O)NNC(=O)c2ccncc2)c1
MIC [6]: 12.5 µg/mL (≈ 49 µM)

O=C(CCC(F)(F)F)N1CCC(c2ccnc(F)c2)CC1
pEC50 [9]: > 6.82
pIC50 [10]: 8.00

CCOc1ccc(NC(=O)c2c(Nc3ccccc3)nn3c(O)cc(C)nc23)cc1
MIC [1]: 50 µg/mL (≈ 124 µM)

O=C(CCC(F)(F)F)N1CCC(c2cncc(C(F)(F)F)n2)CC1
pEC50 [9]: > 6.82
pIC50 [10]: 8.00

CCOC1=NOC2(CCN(C(=O)CCC(F)(F)F)CC2)C1
pEC50 [9]: > 7.42
pIC50 [10]: 7.30

O=C(CCC(F)(F)F)N1CCC(c2ccncc2F)CC1
pEC50 [9]: > 6.82
pIC50 [10]: 8.00

Cc1cc(O)n2nc(Nc3ccc(Cl)cc3)c(C(=O)Nc3ccccc3)c2n1
MIC [1]: 50 µg/mL (≈ 127 µM)

COc1ccc(NC(=O)c2c(Nc3cccc(C)c3C)nn3c(O)cc(C)nc23)cc1
MIC [1]: 50 µg/mL (≈ 120 µM)

O=C(/C=C/c1ccc(Cl)cc1)NNC(=O)c1ccncc1
MIC [6]: 12.5 µg/mL (≈ 41.4 µM)

O=C(CCC(F)(F)F)N1CCC(F)(c2ccnc(Cl)c2)CC1
pEC50 [9]: > 6.82
pIC50 [10]: 8.00

O=C(CCC(F)(F)F)N1CCC(c2cc(C(F)(F)F)ccn2)CC1
pEC50 [9]: > 6.82
pIC50 [10]: 8.00

Cc1ccccc1-c1cc2c(cc1F)c(=O)c(C(=O)O)cn2C(C)(C)C
MIC [2]: 8 µg/mL (≈ 22.6 µM)
MIC [3]: 8 µg/mL (≈ 22.6 µM)
MIC [4]: 8 µg/mL (≈ 22.6 µM)
MIC [5]: 16 µg/mL (≈ 45.3 µM)

CC(C)(C)n1cc(C(=O)O)c(=O)c2cc(F)c(-c3cccc(Cl)c3)cc21
MIC [2]: 2 µg/mL (≈ 5.35 µM)
MIC [3]: 2 µg/mL (≈ 5.35 µM)
MIC [4]: 2 µg/mL (≈ 5.35 µM)
MIC [5]: 4 µg/mL (≈ 10.7 µM)
